# Reference: paper doi:10.1101/2024.07.10.602890, “H105A peptide eye drops promote photoreceptor survival in murine and human models of retinal degeneration” (bioRxiv, 2024)
# Ends that are not written are not given here.
# System: Rho^P23H/+ mice
# Assay: H105A eye drops in Rho P23H/+ mice: BAX/BCL2 immunofluorescence, ONL and OS thickness
# Type: in vivo, mouse
# Procedure: Fig. 6: Effects of eye drops containing H105A peptide in the photoreceptors of RhoP23H/+ mice (A) Scheme of experimental design. Daily peptide eye drops (5 μl of 1mg/ml peptide) were applied to mice starting at P14 until P19 when immunofluorescence of retinal cross sections was performed. The contralateral control eyes were treated with vehicle HBSS. (B) Immunostaining was performed with antibodies against BAX or BCL2 (green), and DAPI (blue). Histograms show quantification of immunofluorescence intensity for BAX and BCL2 markers. […] Each individual data point represents the average of one retina, with statistical significance determined by unpaired t-test (****p < 0.00001). Scale bar = 10 μm. […] (D) Quantification of ONL thickness represented in the spider graph confirmed a significant preservation in the ventral retina. […] Presented as average ± SEM, with statistics performed using One-way ANOVA * p<0.05
# Eyes from Rho^P23H/+ mice eyes were enucleated and fixed in Davidson’s fix (Formaldehyde 8% (Merck, cat. F8775); Ethanol 32% (Carlo Erba, cat. 414608); Acetic Acid 10% (Merck, cat. 695092) over-night. After embedding in paraffin, 14 μm sections were collected. For TUNEL, sections were treated with 0.1 M Citrate Buffer pH 6 (Tri-sodium Citrate 10 mM (Carlo Erba, cat. 368007); Citric Acid 0.2 mM (Merck, cat: 251275) in microwave for 5 minutes, then labeling was performed for one hour at 37°C using a In Situ Cell Death Detection Kit (Merck, cat. 12156792910). Rod photoreceptors were labeled with anti-RHO 1D4 antibody followed by Alexa Fluor 568 anti-mouse secondary antibody (see Table S3). Cone photoreceptors were labeled with peanut agglutinin (PNA, Vector Laboratories, cat. FL-1071). GFP localization in control transduced retinas was identified with specific anti-GFP antibodies and Alexa Fluor 488 anti-mouse secondary antibody (see Table S3). For nuclear staining, 0.1 μg/mL DAPI was used. Slides were mounted with Mowiol 4–88 (Merck) and images acquired with a Zeiss Axio Imager A2 fluorescence microscope. To count TUNEL positive cells the RETINA Analysis Tool kit for ImageJ was used ([52]).
# To generate spider plots, the ONL thickness was measured from images acquired with light microscopy of the retina sections stained with H&E or images of retina sections stained with DAPI with a dorsal-ventral orientation. The ONL thickness in the entire retina sections was measured at 5 different positions from both sides of the optic nerve (ON) using ImageJ, as described before ([28]). Alternatively, for DAPI stained images, a customed macro implemented in ImageJ was used to select only the ONL.
# [1] = daily eye drops 5 μl of 1 mg/ml P14 to P19, vs contralateral HBSS
sequence,measurement,setting,value
QRTESIIARALYYDLIS [H105A],BAX level (immunofluorescence),[1],attenuated the levels of BAX
same,BCL2 level (immunofluorescence),[1],increased BCL2
same,outer segments (OS) of rod photoreceptors labeled by rhodopsin,"daily eye drops P14 to P19, P19, n = 9",significantly preserved
same,ONL thickness,"daily eye drops P14 to P19, assessed at P19",significant preservation in the ventral part of the retina
